Results taken from patent publication US4446129A, “Method for treatment of arthrosis deformans with elastase” (Eisai Co., Ltd., priority 1982, dated 1984).
Values joined by “and” are separate entries in the source; they are usually repeats but may differ in a detail not shown here. Equal entries are not always repeated. “Also recorded” adds a separate entry of the source.

Experiments:
[1] = tested on: pregnant mice; assay: Teratogenicity, mice; assay type: in vivo, mouse; conditions: oral, 750, 7,500 or 75,000 EL. U/kg/day, 6 days
From the text: (§1) Elastase was forcibly orally administered to pregnant mice and rats in the stage of organogenesis at dosages of 750, 7,500 or 75,000 EL. U/kg/day for 6 consecutive days. As a result, death, hindrance to growth and teratogenesis of the embryos were not observed, and there was no effect upon the morphological and functional differentiation of the newborn animals.

[2] = tested on: elastase; conditions: cited from earlier work
[3] = tested on: Wistar strain female and male rats; assay: Subacute toxicity, rats; assay type: in vivo, rat; conditions: oral, 750, 7,500 and 37,500 or 75,000 EL. U/kg/day for 4 weeks
From the text: (§2) Elastase was orally administered to Wistar strain female and male rats at dosages of 750, 7,500 and 37,500 or 75,000 EL. U/kg/day for 4 weeks, and to female and male beagle dogs at dosages of 900 or 4,500 EL. U/kg/day for 12 weeks.

[4] = tested on: gonarthralgia; assay: Clinical examples: effectiveness against gonarthralgia; assay type: in vivo, human
From the text: (§3) The subjects included 18 patients (men 6 cases, women 12 cases, ages 57 to 88, average 70.9±8.2 years old) that were diagnosed negative as to rheumatoid arthrosis and were clinically diagnosed as suffering from gonarthrosis deformans. […] The distribution of the duration of gonarthralgia in the patients from the onset thereof was such that six cases fell into each of the periods of (1) three years or shorter, (2) four to five years, and (3) five years or longer.
(§4) The effectiveness of elastase against gonarthrosis deformans was evaluated by administering capsules containing 1,800 EL.U elastase at a daily dosage of 3 capsules per day to each patient for 8 weeks, and investigating the severity of gonarthralgia before administration, 4 weeks after administration, and 8 weeks after administration.
(§5) However, these patients had received and continued to receive during the test period antihypertensive agents, agents for improving cerebral circulation and other drugs for the treatment of their underlying diseases. However, the levels of these drugs in the patients' bodies remained unchanged from the day 8 weeks before the start of the test up to the last day of the test. During the tests, no patient received any other antiinflammatory, analgesic or steroid having the possible effect of palliation of arthralgia.

[5] = tested on: pregnant rats; assay: Teratogenicity, rats; assay type: in vivo, rat; conditions: oral, 750, 7,500 or 75,000 EL. U/kg/day, 6 days
From the text: as §1

[6] = tested on: lipoprotein; conditions: cited from earlier work
[7] = tested on: human patients; assay: Clinical examples: side effects; assay type: in vivo; conditions: for resolution of epigastric discomfort: after 4 weeks
From the text: as §3, §4, §5

[8] = tested on: lipid metabolism in the serum and tissues; arterial walls; conditions: cited from earlier work
[9] = tested on: female and male beagle dogs; assay: Subacute toxicity, dogs; assay type: in vivo, dog; conditions: oral, 900 or 4,500 EL. U/kg/day for 12 weeks
From the text: as §2

[10] = porcine elastase; cited from earlier work
[11] = tested on: Wistar strain female and male rats; assay: Chronic toxicity, rats; assay type: in vivo, rat; conditions: oral, 2,250, 5,700, 11,250 or 22,500 EL. U/kg/day for 24 weeks
From the text: Elastase was orally administered to Wistar strain female and male rats at dosages of 2,250, 5,700, 11,250 or 22,500 EL. U/kg/day for 24 weeks.

[12] = tested on: other types of arthralgia; assay: Clinical examples: effectiveness against other types of arthralgia and symptoms; assay type: in vivo, human
From the text: as §3, §4, §5

[13] = Absorption, blood concentration and fate of elastase after oral administration; assay type: in vivo
[14] = duration 3 years or shorter, 4 w
[15] = duration 3 years or shorter, 8 w
[16] = duration 5 years or longer, 4 w
[17] = duration 5 years or longer, 8 w
[18] = individual patient case (one line per case No. 1-18), 3 capsules of 1,800 EL.U per day
[19] = individual patient case (Table 2)

elastase: enzyme which specifically decomposes elastin, a water-insoluble scleroprotein; industrially produced by extraction from swine pancreas
effect upon morphological and functional differentiation of the newborn animals [1]: no effect
death, hindrance to growth and teratogenesis of the embryos ([1]; organogenesis): not observed
optimal activation pH, particularly ([2]; N-α-benzoyl-L-alanine methyl ester as substrate): about 8.8
optimal activation pH ([2]; N-α-benzoyl-L-alanine methyl ester as substrate, range): 8 to 10
decomposition of N-α-benzoyl-L-alanine methyl ester, acetyl-L-trialanine-p-nitroanilide and elastin ([2]; porcine elastase): specifically decomposing
Subacute toxicity: general physical condition, blood and urinary tests, morphological observations [3]: no noteworthy anomalous findings
"ineffective" result, number ([4]; 4 to 5 year group): one
"ineffective" result, number ([4]; 5 years or longer group): one
result (case history) ([4]; Case 4, Case 8, Case 16, Case 13): markedly effective; also recorded: ineffective (when there was no effect)
pain in knee joints when administration was discontinued ([4]; Case 9): worsened
gonarthralgia after restart of administration ([4]; Case 9, restarted at beginning of third week): palliation of gonarthralgia
improvement, case history ([4]; Case 13, after either 4 weeks or 8 weeks): no improvement was recognized
difficulty with Japanese dancing, case history ([4]; Case 16, after 4 weeks): disappeared
knee pain, case history ([4]; after 4 weeks, Case 4, Case 8, Case 16): completely cleared up; also recorded: disappeared entirely
gonarthralgia in cases with other symptoms ([4]; all of these cases): palliated or cleared up
aggravated, number of cases [4, 14]: 0
effective, number of cases [4, 14]: 3
ineffective, number of cases [4, 14]: 0
markedly effective, number of cases [4, 14]: 3
rate of effectiveness [4, 14]: 100%
rate of effectiveness (cases/total) [4, 14]: 6/6
aggravated, number of cases [4, 15]: 0
effective, number of cases [4, 15]: 3
ineffective, number of cases [4, 15]: 0
markedly effective, number of cases [4, 15]: 3
rate of effectiveness [4, 15]: 100%
rate of effectiveness (cases/total) [4, 15]: 6/6
aggravated, number of cases ([4]; duration 4 to 5 years, 4 w): 0
effective, number of cases ([4]; duration 4 to 5 years, 4 w): 3
ineffective, number of cases ([4]; duration 4 to 5 years, 4 w): 1
markedly effective, number of cases ([4]; duration 4 to 5 years, 4 w): 2
rate of effectiveness ([4]; duration 4 to 5 years, 4 w): 83.3%
rate of effectiveness (cases/total) ([4]; duration 4 to 5 years, 4 w): 5/6
aggravated, number of cases ([4]; duration 4 to 5 years, 8 w): 0
effective, number of cases ([4]; duration 4 to 5 years, 8 w): 2
ineffective, number of cases ([4]; duration 4 to 5 years, 8 w): 1
markedly effective, number of cases ([4]; duration 4 to 5 years, 8 w): 3
rate of effectiveness ([4]; duration 4 to 5 years, 8 w): 83.3%
rate of effectiveness (cases/total) ([4]; duration 4 to 5 years, 8 w): 5/6
aggravated, number of cases [4, 16]: 0
effective, number of cases [4, 16]: 4
ineffective, number of cases [4, 16]: 1
markedly effective, number of cases [4, 16]: 1
rate of effectiveness [4, 16]: 83.3%
rate of effectiveness (cases/total) [4, 16]: 5/6
aggravated, number of cases [4, 17]: 0
effective, number of cases [4, 17]: 3
ineffective, number of cases [4, 17]: 1
markedly effective, number of cases [4, 17]: 2
rate of effectiveness [4, 17]: 83.3%
rate of effectiveness (cases/total) [4, 17]: 5/6
cases with gonarthralgia completely cleared up, number ([4]; duration greater than 5 years): two
overall rate of improvement ([4]; entire group of 18 patients): 88.9%
patients with distinct palliation or complete clearing of gonarthralgia, number ([4]; entire group of patients): sixteen
results of "aggravated" ([4]; entire group of patients): no results of "aggravated"
results of "ineffective", number ([4]; entire group of patients): two
Effect on arthralgia after 4 w. [4, 18]: + (effective) and ++ and - (ineffective)
Effect on arthralgia after 8 w. [4, 18]: + (effective) and ++ and - (ineffective)
persistent gonarthralgia ([4]; most of the patients, during term of administration, not informed of relation): considerably palliated or completely cleared up
results of "markedly effective", 8 weeks compared with 4 weeks ([4]; overall): somewhat higher after the 8 week period
rate of effectiveness ([4]; overall, 4 w): 88.9%
rate of effectiveness (cases/total) ([4]; overall, 4 w): 16/18
effective, number of cases ([4]; overall, 4 w, 18 cases): 10
markedly effective, number of cases ([4]; overall, 4 w, 18 cases): 6
rate of effectiveness (cases/total) ([4]; overall, 8 w): 16/18
rate of effectiveness / overall rate of improvement ([4]; overall, 8 w): 88.9%
rate of "effective" ([4]; overall, after 4 weeks): 55.6%
rate of "ineffective" ([4]; overall, after 4 weeks): 11.1%
rate of "markedly effective" ([4]; overall, after 4 weeks): 33.3%
rate of "aggravated" ([4]; overall, after 8 weeks): 0%
rate of "effective" ([4]; overall, after 8 weeks): 44.4% and 44.48%
rate of "ineffective" ([4]; overall, after 8 weeks): 11.1%
rate of "markedly effective" ([4]; overall, after 8 weeks): 44.4% and 44.48%
onset of perceived palliation or clearing of arthralgia ([4]; patients who showed improvement, after start of administration): at the beginning of the second week
effect upon morphological and functional differentiation of the newborn animals [5]: no effect
death, hindrance to growth and teratogenesis of the embryos ([5]; organogenesis): not observed
β-lipoproteinase activity and lipoprotein lipase activity [6]: confirmed
discontinuation of administration in cases with epigastric discomfort ([7]; 3 cases (conclusions)): not discontinued in any of these cases
epigastric discomfort, number of cases ([7]; 18 patients, 8 weeks): 3
epigastric discomfort, rate ([7]; 18 patients, 8 weeks): 16.7%
Miscellaneous: discontinuation and restart ([7]; Case 9 (Table 2)): administration discontinued after 2 w; also recorded: restarted because of worsened arthralgia
resolution of epigastric discomfort ([7]; Case 9, administration restarted): cleared up after 4 weeks
discontinuation of administration because of epigastric discomfort ([7]; Case 9, at the beginning of the second week): discontinued at the beginning of the second week
epigastric discomfort ([7]; Cases 3, 6 and 9, one to two weeks after administration began): suffered from epigastric discomfort for several days
resolution of epigastric discomfort ([7]; Cases 3 and 6): disappeared after 4 weeks
nausea, vomiting, exanthema or the like ([7]; all cases): In none of the cases
Side effect (transient epigastric discomfort) [7, 19]: transient
removal of denatured elastin, formation of fresh elastin, fat deposition, atherosclerosis ([8]; arterial walls): functions to remove denatured elastin from arterial walls and to promote formation of fresh elastin
effect on disturbance of lipid metabolism in the serum and tissues ([8]; in vivo): normalizing effect
elasticity and dilatability of arterial walls ([8]; in vivo): maintains and promotes
Subacute toxicity: general physical condition, blood and urinary tests, morphological observations [9]: no noteworthy anomalous findings
isoelectric point [10]: 9.5±0.5 pH
Chronic toxicity: general physical condition, blood and urinary tests, morphological observations [11]: no anomalous findings
morning stiffness in the fingers ([12]; Case 4, after 4 weeks): cleared up
lumbago ([12]; Case 5, during the term of administration): cleared up
cinesalgia in the left shoulder (periarthritis) ([12]; Case 6, during the term of administration): No change
anomalies of sensation in fingers ([12]; Cases 10 and 15): not cleared up
Miscellaneous [12, 19]: morning stiffness in hands cleared; also recorded: carpal tunnel syndrome not changed; also recorded: dancing eliminated
Miscellaneous: lumbago [12, 19]: cleared; also recorded: lumbago lasting
time of maximum concentration of elastase in the blood ([13]; after (oral) administration): 6 h
combination with blood proteins ([13]; in the blood): combines with α2 -macroglobulin and α1 -antitrypsin
area under the blood concentration curve versus dosage ([13]; oral): increases in proportion to the dosage
distribution ([13]; oral): distributed widely over all of the body tissues
excretion ([13]; oral): excreted into the urine
metabolism ([13]; oral): metabolized chiefly in the liver
